Measured values reported in US20230227547A1, “ANTIBODY-PAYLOAD CONJUGATES WITH ENHANCED DELIVERY DOMAIN AND USES THEREOF” (IPROGEN BIOTECH INC., priority 2019, published 2023).

How the values were obtained:
LnCap = assay: Delivery assay, Goat anti-human IgG-AlexaFluor 488 fluorescence microscopy, LnCap; format: cell-based; design: key to Delivery efficiency of mAb (i.e., mAb): +++: Strong Alexa Fluor 488 (cyan/green) fluorescent intensity; ++: Medium level of Alexa Fluor 488 (cyan/green) fluorescent intensity; +: Weak, but noticeable Alexa Fluor 488 (cyan/green) fluorescent intensity; -: No signal; conditions: Target cell LnCap; for Delivery efficiency of mAb (i.e., mAb): 100 nM, 3 hours; for Delivery enhancement: mAb-LL37 vs mAb
Description: (§1) Delivery assay. […] The culturing media containing the unbound antibodies were removed, and the MDA-MB-468 cells were washed with PBS. The adherent cells were treated with trypsin at 37 degree C for 1-2 minutes, neutralized in FACS buffer (2% v/v FBS, 2 mM EDTA, 0.05% w/v sodium azide in PBS), and transferred to FACS tubes on ice. The delivery of antibodies to cells was quantitated by measuring the red fluorescence intensity (i.e., PE-Texas Red color channel in the FACS detector) emitted fromZ-RFP bound to antibody. […] At the end of incubation, the adherent target cells were washed twice with ice-cold PBS, fixed with 2% (w/v) formaldehyde in PBS at room temperature for 15 minutes, and washed twice with PBS at room temperature. The fixed adherent target cells were then permeabilized with 0.05% (v/v) Tween-20 in PBS at room temperature for 15 minutes. The permeabilized cells were then incubated with 5% (v/v) FBS, 0.05% (v/v) Tween-20 in PBS at 37 degree Celsius incubator for 30 minutes. The secondary antibody, Goat anti-human IgG-AlexaFluor 488, was added to 5 ug/ml in 5% (v/v) FBS, 0.05% (v/v) Tween-20 in PBS, and incubated with the treated target cells at 37 degree Celsius incubator for 30 minutes. After incubation, the labelled cells were washed twice with PBS, and stored in storage buffer [5% (v/v) FBS in PBS] at 4 degree Celsius until fluorescence microscope imaging. The delivery of mAb and mAb-LL37 were determined qualitatively by estimating the green fluorescence intensity emitted from the AlexFluor488-labelled secondary antibody bound to mAb or mAb-LL37. […] However, Ramos [NT] No. ATCC CRL-1596, lot#70016960) was grown in suspension culture (i.e., in contrast to adherent cells), and the modification to the methods involves simply harvesting cells from the shaking culture flask for incubation with antibodies (or LL37-linked antibodies), and frequently pelleting down the target cells in the V-bottom 96-well polypropylene plate for downstream processes of PBS washing, fixing, permeabilizing, blocking, and the secondary antibody labelling. The secondary anti-human IgG-AlexaFluor488 labelled target cells were washed and resuspended in PBS, and transferred to the clear polystyrene 48-well plates for fluorescence microscope imaging.

T47D cells [1] = assay: Anti-HER2 mAb delivery efficiency using LL37-derived peptide constructs; format: cell-based, human; conditions: for Delivery efficiency: peptide conjugated to anti-HER2 mAb light chain, 100 nM Ab, Z-GFP (PEP#6, 35-43) or Goat anti-human IgG-AlexaFluor 488 (PEP#6, 47-94) fluorescence microscopy; for delivery enhancement (in words): peptide conjugated to anti-HER2 mAb
Description: LL37 and LL37-derived peptides were produced synthetically with two additional N-terminal glycine residues (e.g. as shown in SEQ ID NO:2 compared to SEQ ID NO: 1) to enable the sortase reaction. The LL37-derived peptides (PEP#35 to #43, SEQ ID NOs: 13-21) were all dissolved at 10 mg/ml in phosphate buffer saline (PBS) at room temperature, sterile-filtered, and stored at -20° C. freezer. PEP#48 (SEQ ID: 74), PEP#49 (SEQ ID No: 75), and PEP#60 (SEQ ID NO: 105) were dissolved in 20% (v/v) acetonitrile in PBS. PEP#47 (SEQ ID NO: 96), PEP#86 (SEQ ID NO: 78), PEP#98 (SEQ ID NO: 79), PEP#99 (SEQ ID NO: 80), PEP#102 (SEQ ID NO: 82), and PEP#104 (SEQ ID NO: 84) were dissolved in DMSO. PEP#50 (SEQ ID No: 76), PEP#51 (SEQ ID No: 97), PEP#55 (SEQ ID No: 77), PEP#58 (SEQ ID No: 103), PEP#59 (SEQ ID No: 104), PEP#61 (SEQ ID No: 106), PEP#62 (SEQ ID No: 107), PEP#63 (SEQ ID No: 108), PEP#64 (SEQ ID No: 109), PEP#66 (SEQ ID No: 110), and PEP#94 (SEQ ID No: 35) were all dissolved in PBS. […] The reaction was incubated inside a 37° C. incubator for 16 hours, and then EDTA (pH 7.5) was added to 10 mM in the reaction mixture to chelate calcium and stop the reaction.
Delivery assay: The following delivery assay method was used on the anti-HER2 mAbs conjugated to the PEP#6, #35, #36, #37, #38, #39, #40, #41, #42, and #43 described in Table 7. […] The plates were then removed from the incubator, and the culturing media was removed from the adherent cells. The adherent cells were washed gently with an equal volume of ice-cold PBS. Then, the PBS wash was replaced 250 µl of fresh PBS for fluorescence microscope imaging.
At the end of incubation, the adherent target cells were washed twice with ice-cold PBS, fixed with 2% (w/v) formaldehyde in PBS at room temperature for 15 minutes, and washed twice with PBS at room temperature. The fixed adherent target cells were then permeabilized with 0.05% (v/v) Tween-20 in PBS at room temperature for 15 minutes. The permeabilized cells were then incubated with 5% (v/v) FBS, 0.05% (v/v) Tween-20 in PBS at 37 degree Celsius incubator for 30 minutes. The secondary antibody, Goat anti-human IgG-AlexaFluor 488, was added to 5 ug/ml in 5% (v/v) FBS, 0.05% (v/v) Tween-20 in PBS, and incubated with the treated target cells at 37 degree Celsius incubator for 30 minutes. After incubation, the labelled cells were washed twice with PBS, and stored in storage buffer [5% (v/v) FBS in PBS] at 4 degree Celsius until fluorescence microscope imaging. The delivery of mAb and mAb-LL37-derived peptides were determined qualitatively by estimating the green fluorescence intensity emitted from the AlexFluor488-labelled secondary antibody bound to mAb or mAb-LL37-derived peptides.

T47D cells [2] = assay: Cell viability assay with XTT, T47D; format: cell-based, human; conditions: XTT (Taxol ADCs: 3 hours)
Description: The cell assay was done by treating/incubating the T47D cells with antibody drug conjugates for 3 hours in the 37 degree C tissue culture incubator. After treatment, cell viability was determined by XTT assay as described above.
(§2) After treatment, cell viability was determined by XTT assay as described above.

RT4V6 cells = assay: Cell viability assay with XTT, RT4V6; format: cell-based, human; conditions: 72 hours treatment
Description: Cell viability assay with XTT. On day 1, cells (RT4V6, Neuro2A) were seeded at about 0.02 to 0.025 million cells per ml concentration and incubated overnight in the 37° C. incubator. […] XTT and PMS solutions were freshly prepared immediately before the assay, and were used right away. XTT/PMS were added to the treated cells to start the XTT reaction. […] Spectral absorbance was measured at 475 nm (XTT) and 660 nm (background), and viability calculated from the spectral absorbance difference at 475 nm and 660 nm.
Cell assay was done by treating/incubating the RT4V6 cells with antibody drug conjugates for 72 hours in the 37 degree C tissue culture incubator. After treatment, cell viability was determined by XTT assay as described above.
The cell assay was done by treating/incubating the RT4V6 cells with antibody drug conjugates for 72 hours in the 37 degree C tissue culture incubator. After treatment, cell viability was determined by XTT assay as described above.
as §2
(§3) Cell viability assay with XTT. […] After treatment, cell viability was determined by XTT assay as described above.

OVCAR3 cells = assay: Cell viability assay with XTT, OVCAR3; format: cell-based, human; conditions: 72 hours (FIG. 10: 24 hours) treatment
Description: Cell viability assay with XTT. On day 1, cells (OVCAR3) were seeded at about 0.02 to 0.025 million cells per ml concentration and incubated overnight in the 37 degree Celsius incubator. […] One set was incubated for 24 hours, and another set for 72 hours. On day 3, the set with 24 hours, the treatment were removed, and replaced with fresh growth media, and continued incubation for the next 48 hours (for the total of 72 hours). On day 5, the set with both 24 hours and 72 hours treatments were analyzed. […] XTT and PMS solutions were freshly prepared immediately before the assay, and were used right away. XTT/PMS were added to the treated cells to start the XTT reaction. […] Spectral absorbance was measured at 475 nm (XTT) and 660 nm (background), and viability calculated from the spectral absorbance difference at 475 nm and 660 nm.
The cell assay was done by treating/incubating the OVCAR3 cells with antibody drug conjugates for 3 hours in the 37 degree C tissue culture incubator. After treatment, cell viability was determined by XTT assay as described above.
as §2
Cell viability assay was carried out with XTT as as described above.
as §3

OVCAR3 = assay: Delivery assay, Goat anti-human IgG-AlexaFluor 488 fluorescence microscopy, OVCAR3; format: cell-based; design: key to Delivery efficiency of mAb (i.e., mAb): +++: Strong Alexa Fluor 488 (cyan/green) fluorescent intensity; ++: Medium level of Alexa Fluor 488 (cyan/green) fluorescent intensity; +: Weak, but noticeable Alexa Fluor 488 (cyan/green) fluorescent intensity; -: No signal; conditions: Target cell OVCAR3; for Delivery enhancement: mAb-LL37 vs mAb
Description: as §1, with “No. ATCC CRL-1596, lot#70016960) was grown in suspension culture (i.e., in contrast to adherent cells), and the modification to the methods involves simply harvesting cells from the shaking culture flask for incubation with antibodies (or LL37-linked antibodies), and frequently pelleting down the target cells in the V-bottom 96-well polypropylene plate for downstream processes of PBS washing, fixing, permeabilizing, blocking, and the secondary antibody labelling.” left out

RT4v6 = assay: Delivery assay, Goat anti-human IgG-AlexaFluor 488 fluorescence microscopy, RT4v6; format: cell-based; design: key to Delivery efficiency of mAb (i.e., mAb): +++: Strong Alexa Fluor 488 (cyan/green) fluorescent intensity; ++: Medium level of Alexa Fluor 488 (cyan/green) fluorescent intensity; +: Weak, but noticeable Alexa Fluor 488 (cyan/green) fluorescent intensity; -: No signal; conditions: Target cell RT4v6; for Delivery enhancement: mAb-LL37 vs mAb
Description: as §1, with “No. ATCC CRL-1596, lot#70016960) was grown in suspension culture (i.e., in contrast to adherent cells), and the modification to the methods involves simply harvesting cells from the shaking culture flask for incubation with antibodies (or LL37-linked antibodies), and frequently pelleting down the target cells in the V-bottom 96-well polypropylene plate for downstream processes of PBS washing, fixing, permeabilizing, blocking, and the secondary antibody labelling.” left out

CD20-positive RL cells = assay: Delivery assay, Z-RFP FACS, RL cells; format: cell-based, human; conditions: 0.5 nM, 5 nM, 50 nM; 30 minutes
Description: For FIG. 30 Panel D, Ofatumumab-LL37 was made from Ofatumumab (SEQ ID NOs: 40 and 41) in a sortase-catalyzed reaction to GG-LL37 peptide (SEQ ID NO: 2), and purified on Protein A chromatography. For cell delivery assay, Ofatumumab/Ofatumumab-LL37 and equimolar equimolar number of Z-RFP were added to RL cells at described final concentration (i.e., 0.5 nM, 5 nM, and 50 nM) and incubated for 30 minutes. The liquid suspension culture was gently spun in a microcentrifuge at 2000 rpm for 4 minutes, and the clear supernatant was removed, and the cell pellet was washed in PBS and resuspended in FACS buffer (1XPBS, 2% FBS, 1 mM EDTA, 0.02% sodium azide) for analysis by FACS (Texas Red channel).

Ramos = assay: Delivery assay, Goat anti-human IgG-AlexaFluor 488 fluorescence microscopy, Ramos; format: cell-based; design: key to Delivery efficiency of mAb (i.e., mAb): +++: Strong Alexa Fluor 488 (cyan/green) fluorescent intensity; ++: Medium level of Alexa Fluor 488 (cyan/green) fluorescent intensity; +: Weak, but noticeable Alexa Fluor 488 (cyan/green) fluorescent intensity; -: No signal
Description: Delivery assay. […] The culturing media containing the unbound antibodies were removed, and the MDA-MB-468 cells were washed with PBS. The adherent cells were treated with trypsin at 37 degree C for 1-2 minutes, neutralized in FACS buffer (2% v/v FBS, 2 mM EDTA, 0.05% w/v sodium azide in PBS), and transferred to FACS tubes on ice. The delivery of antibodies to cells was quantitated by measuring the red fluorescence intensity (i.e., PE-Texas Red color channel in the FACS detector) emitted fromZ-RFP bound to antibody. […] At the end of incubation, the adherent target cells were washed twice with ice-cold PBS, fixed with 2% (w/v) formaldehyde in PBS at room temperature for 15 minutes, and washed twice with PBS at room temperature. […] After incubation, the labelled cells were washed twice with PBS, and stored in storage buffer [5% (v/v) FBS in PBS] at 4 degree Celsius until fluorescence microscope imaging. The delivery of mAb and mAb-LL37 were determined qualitatively by estimating the green fluorescence intensity emitted from the AlexFluor488-labelled secondary antibody bound to mAb or mAb-LL37. […] The secondary anti-human IgG-AlexaFluor488 labelled target cells were washed and resuspended in PBS, and transferred to the clear polystyrene 48-well plates for fluorescence microscope imaging.

## Anti-PSMA, hj591: Anti-PSMA mAb, SEQ ID NOs: 66 and 68
LnCap
  Delivery efficiency of mAb (i.e., mAb): ++
  Delivery enhancement: YES
LnCap; listed as hj591
  Delivery enhancement: greatly enhances the delivery

## Citatuzumab [Anti-EpCAM, Citatuzumab]
LnCap
  Delivery efficiency of mAb (i.e., mAb): ++
  Delivery enhancement: YES

## EFKRIVQRIKDFLRNLVPRT [PEP#64]
T47D cells [1]
  Delivery efficiency: +

## EKIGKEFKRIVQRIKDFLRN [PEP#63]
T47D cells [1]
  Delivery efficiency: +

## FRKSKEKIGKFFKRIVQRIFDFLRNLVMMWLL [PEP#48]
T47D cells [1]
  Delivery efficiency: +++ (Same as LL37)

## GSIGKEFKRIVQRIKDFLR [PEP#66]
T47D cells [1]
  Delivery efficiency: ++ (Solid enhancement in delivery, but at lower efficiency than LL37)

## IGKEFKRIVQRI [PEP#40]
T47D cells [1]
  Delivery efficiency: +

## IGKEFKRIVQRIKDFLRNLVPRTES [PEP#36]
T47D cells [1]
  Delivery efficiency: ++ (Solid enhancement in delivery, but at lower efficiency than LL37)
T47D cells [2]
  killing of T47D / cell viability (in words): enhanced the anti-HER2 mAb-MMAE drug conjugate to kill T47D cells

## IVQRIKDFLRNLVPRTES [PEP#38]
T47D cells [1]
  Delivery efficiency: ++ (Solid enhancement in delivery, but at lower efficiency than LL37)
T47D cells [2]
  killing of T47D / cell viability (in words): enhanced the anti-HER2 mAb-MMAE drug conjugate to kill T47D cells

## KEFKRIVQRIKDFLRGGGGSRLFDKIRQVIRKFEKG [PEP#55]
T47D cells [1]
  Delivery efficiency: +++ (Same as LL37)
RT4V6 cells
  killing of RT4V6 / cell viability (in words): strongly enhance ADC killing
OVCAR3 cells
  killing of OVCAR3 / cell viability (in words): strongly enhance ADC killing

## KRIVQRIKDFL [PEP#60]
T47D cells [1]
  Delivery efficiency: +

## KSKEKIGKEFKRIVQ [PEP#42]
T47D cells [1]
  Delivery efficiency: +

## LLGDFFRASKEKIGKEFAAIVQAIKDFLANLVPATES [PEP#50]
T47D cells [1]
  delivery enhancement (in words): decrease in, but not abrogation of, delivery enhancement
  Delivery efficiency: +

## LLGDFFRKSKEKIGKEFKRIVQRIK [PEP#35]
T47D cells [1]
  Delivery efficiency: +

## LLGDFFRKSKEKIGKEFKRIVQRIKDFLRNLVPRTESC [PEP#94]
T47D cells [1]
  Delivery efficiency: +++ (Same as LL37)

## LLGDFFRQSKEKIGKEFQQIVQQIKDFLQNLVPQTES [PEP#49]
T47D cells [1]
  delivery enhancement (in words): abolished the antibody delivery enhancement

## Labetuzumab [Anti-CEACAM5, Labetuzumab]
LnCap
  Delivery efficiency of mAb (i.e., mAb): +
  Delivery enhancement: YES
LnCap; listed as labetuzumab
  Delivery enhancement: significantly increases the delivery

## Lifastuzumab [Anti-NaPi2b, Lifastuzumab]
OVCAR3; 100 nM, 3 hours
  Delivery efficiency of mAb (i.e., mAb): +
OVCAR3
  Delivery enhancement: YES
OVCAR3; listed as lifastuzumab
  Delivery enhancement: significantly increases the delivery
RT4v6
  Delivery enhancement: significantly increases the delivery

## MMWLL [PEP#47, reference compound]
T47D cells [1]
  delivery enhancement (in words): confirmed to not enhance antibody delivery to target cells alone

## Ofatumumab-LL37
CD20-positive RL cells
  targeted delivery (in words): more efficient than anti-CD20 mAb (i.e., Ofatumumab) at targeted delivery

## Rituximab [Anti-CD20, Rituximab]
Ramos; Target cell Ramos (suspension culture)
  Delivery efficiency of mAb (i.e., mAb): ++
Ramos; Target cell Ramos, mAb-LL37 vs mAb
  Delivery enhancement: YES

## Vofatamab [Anti-FGFR3, Vofatamab]
RT4v6; 100 nM, 3 hours
  Delivery efficiency of mAb (i.e., mAb): +
RT4v6
  Delivery enhancement: YES
